# Test results from patent US4691046A, “Butanedioic acid mono [(2-dimethylamino] ethyl ester)succinate” (Institut Organicheskoi Khimii Ordena Lenina I Ordena …, priority 1986, dated 1987).
# Key:
# [1] = Blood glucose and organ glycogen upon predetermined (2.5 h) cold treatment (adaptation experiment); type: in vivo, mice; conditions: no adaptation, preparation 1 hour prior to the testing effect, 2.5 h at -14° C.
# [2] = Toxicity upon intraperitoneal administration; conditions: mouse, in vivo, ip
# Solubility = type: physicochemical
structure (smiles),measurement,setting,value
"CN(C)CCOC(=O)CCC(=O)O [Compound of this invention, butanedioic acid mono[(2-dimethylamino)ethyl ester]succinate]","Glycogen, heart",[1]; control 1.7 ± 0.2,2.2 ± 3.4 mg/g
same,"Glycogen, liver",[1]; control 6.7 ± 0.4,7.1 ± 2.6 mg/g
same,Blood glucose,[1]; control 37 ± 6,59 ± 2.6 mg. %
same,LD50,[2],3040 mg/kg
same,solubility in acetone,Solubility; acetone,sparingly soluble
same,solubility in ethanol,Solubility; ethanol,sparingly soluble
same,solubility in water,Solubility; water,well soluble
